# In ChEMBL document CHEMBL1687697 (ACS Med Chem Lett, 2010):
# pIC50: −log10 of the molar value. Activity calls are given as the source filed them. No cut-off for these calls is given here.
# Columns and labels:
# DU-145 [1] = test: Effect on Src protein level in human DU145 cells at 0.1 to 2 uM after 2 hrs by Western blot analysis; assay type: functional, cell-based
# DU-145 [2] = test: Effect on phosphorylated-JAK2 protein level in human DU145 cells at 0.1 to 2 uM after 24 hrs by Western blot analysis; assay type: functional, cell-based
# DU-145 [3] = test: Induction of apoptosis in human DU145 cells assessed as early apoptotic cells at 1 uM after 72 hrs by AnnexinV-propidium iodide based FACS flow cytometry; assay type: functional
# PC-3 = test: Antiproliferative activity against human PC3 cells after 72 hrs by MTT assay; assay type: functional, cell-based; details: PC-3, 72 h
# [4] = target: Signal transducer and activator of transcription 3 (Homo sapiens) (UniProt P40763); test: Inhibition of STAT3 in human HeLa cells at 5 uM after 24 hrs by luciferase reporter gene assay; assay type: cell-based
# Sequence of Signal transducer and activator of transcription 3 (Homo sapiens) (P40763 whole entry): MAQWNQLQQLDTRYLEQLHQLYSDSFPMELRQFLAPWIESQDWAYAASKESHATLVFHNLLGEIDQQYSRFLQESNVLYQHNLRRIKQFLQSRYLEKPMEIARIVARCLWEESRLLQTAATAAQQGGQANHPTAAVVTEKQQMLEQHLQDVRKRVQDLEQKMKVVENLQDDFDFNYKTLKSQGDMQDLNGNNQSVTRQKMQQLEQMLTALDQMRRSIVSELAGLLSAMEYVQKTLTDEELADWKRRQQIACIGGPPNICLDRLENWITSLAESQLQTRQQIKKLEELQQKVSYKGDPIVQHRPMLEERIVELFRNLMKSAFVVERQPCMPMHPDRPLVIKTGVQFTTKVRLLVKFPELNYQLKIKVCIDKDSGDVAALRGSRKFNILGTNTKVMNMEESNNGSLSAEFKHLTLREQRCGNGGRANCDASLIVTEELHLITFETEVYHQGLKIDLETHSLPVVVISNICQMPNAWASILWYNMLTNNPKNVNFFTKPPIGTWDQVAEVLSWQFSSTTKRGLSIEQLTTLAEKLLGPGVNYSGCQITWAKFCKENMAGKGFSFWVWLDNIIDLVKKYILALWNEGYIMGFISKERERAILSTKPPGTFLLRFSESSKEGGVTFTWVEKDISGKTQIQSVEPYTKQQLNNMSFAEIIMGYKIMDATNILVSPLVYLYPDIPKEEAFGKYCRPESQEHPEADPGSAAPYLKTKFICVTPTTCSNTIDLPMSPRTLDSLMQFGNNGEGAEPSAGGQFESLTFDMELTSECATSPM
# DU-145 [5] = test: Induction of apoptosis in human DU145 cells assessed as necrotic cells at 1 uM after 72 hrs by AnnexinV-propidium iodide based FACS flow cytometry; assay type: functional
# DU-145 [6] = test: Induction of apoptosis in human DU145 cells assessed as early apoptotic cells at 5 uM after 72 hrs by AnnexinV-propidium iodide based FACS flow cytometry; assay type: functional
# [7] = target: Vascular endothelial growth factor receptor 2 (Homo sapiens, UniProt P35968); test: Inhibition of VEGFR2 after 60 mins by radiometric assay
# DU-145 [8] = test: Induction of apoptosis in human DU145 cells assessed as early apoptotic cells at 10 uM after 72 hrs by AnnexinV-propidium iodide based FACS flow cytometry; assay type: functional
# DU-145 [9] = test: Induction of apoptosis in human DU145 cells assessed as viable cells at 1 uM after 72 hrs by AnnexinV-propidium iodide based FACS flow cytometry; assay type: functional; details: DU-145, 72 h, read-out: Activity
# [10] = Inhibition of Raf Y340D/Y341D mutant after 60 mins by radiometric assay
# [11] = target: Serine/threonine-protein kinase B-raf (Homo sapiens, UniProt P15056); test: Inhibition of B-Raf after 60 mins by radiometric assay
# Sequence of Serine/threonine-protein kinase B-raf (P15056 whole entry): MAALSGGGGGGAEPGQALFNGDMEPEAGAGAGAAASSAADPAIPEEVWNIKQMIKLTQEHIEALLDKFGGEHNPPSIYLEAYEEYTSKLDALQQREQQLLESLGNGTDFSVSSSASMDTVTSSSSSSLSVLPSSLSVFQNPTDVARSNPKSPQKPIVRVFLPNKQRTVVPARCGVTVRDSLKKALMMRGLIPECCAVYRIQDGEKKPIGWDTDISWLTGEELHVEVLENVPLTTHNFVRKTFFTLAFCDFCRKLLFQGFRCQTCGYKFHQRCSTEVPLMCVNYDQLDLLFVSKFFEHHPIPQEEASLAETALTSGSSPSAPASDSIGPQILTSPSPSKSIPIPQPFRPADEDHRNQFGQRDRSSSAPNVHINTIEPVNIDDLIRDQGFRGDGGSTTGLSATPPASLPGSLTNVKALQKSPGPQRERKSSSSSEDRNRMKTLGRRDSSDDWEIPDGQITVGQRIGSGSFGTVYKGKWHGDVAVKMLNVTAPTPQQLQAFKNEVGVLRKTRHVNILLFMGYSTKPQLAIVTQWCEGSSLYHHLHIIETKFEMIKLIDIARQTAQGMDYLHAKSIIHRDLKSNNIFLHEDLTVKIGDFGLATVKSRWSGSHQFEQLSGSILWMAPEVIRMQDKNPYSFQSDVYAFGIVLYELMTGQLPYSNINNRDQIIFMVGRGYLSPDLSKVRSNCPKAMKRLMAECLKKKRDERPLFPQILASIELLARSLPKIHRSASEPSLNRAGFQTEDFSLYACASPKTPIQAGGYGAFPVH
# DU-145 [12] = test: Effect on JAK1 protein level in human DU145 cells at 0.1 to 2 uM after 2 hrs by Western blot analysis; assay type: functional, cell-based
# DU-145 [13] = test: Induction of apoptosis in human DU145 cells assessed as viable cells at 10 uM after 72 hrs by AnnexinV-propidium iodide based FACS flow cytometry; assay type: functional; details: DU-145, 72 h, read-out: Activity
# [14] = target: Signal transducer and activator of transcription 3 (Homo sapiens) (UniProt P40763); test: Inhibition of STAT3 interaction with DNA binding site in human DU145 cells at 05 to 10 uM after 2 hrs by EMSA; assay type: cell-based; details: DU-145
# DU-145 [15] = test: Effect on […] phosphorylated-Src protein level in human DU145 cells at 0.1 to 2 uM after 2 hrs by Western blot analysis; assay type: functional, cell-based
# [16] = target: Glycogen synthase kinase-3 beta (Homo sapiens, UniProt P49841); test: Inhibition of GSK3-beta after 60 mins by radiometric assay
# [17] = target: Tyrosine-protein kinase Lyn (Homo sapiens, UniProt P07948); test: Inhibition of LYN after 60 mins by radiometric assay
# Sequence of Tyrosine-protein kinase Lyn (P07948 whole entry): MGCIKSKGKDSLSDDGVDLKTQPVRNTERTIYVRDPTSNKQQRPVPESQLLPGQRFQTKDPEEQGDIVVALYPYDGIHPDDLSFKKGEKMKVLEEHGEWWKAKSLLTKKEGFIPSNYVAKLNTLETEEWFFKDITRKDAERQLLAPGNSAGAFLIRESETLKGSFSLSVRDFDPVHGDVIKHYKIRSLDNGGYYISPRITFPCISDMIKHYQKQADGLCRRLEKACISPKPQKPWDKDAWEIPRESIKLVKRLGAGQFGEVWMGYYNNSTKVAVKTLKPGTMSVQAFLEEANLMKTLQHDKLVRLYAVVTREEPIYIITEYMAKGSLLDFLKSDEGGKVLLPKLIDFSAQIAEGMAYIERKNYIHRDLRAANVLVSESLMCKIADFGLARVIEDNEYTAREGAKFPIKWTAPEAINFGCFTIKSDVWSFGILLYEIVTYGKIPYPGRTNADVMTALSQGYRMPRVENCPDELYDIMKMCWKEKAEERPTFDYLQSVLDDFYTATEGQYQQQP
# DU-145 [18] = test: Decrease in STAT3 protein level in human DU145 cells after 24 hrs by Western blot analysis; assay type: functional, cell-based
# DU-145 [19] = test: Cell cycle arrest in human DU145 cells assessed as accumulation in G0/G1 phase at 0.2 uM after 24 hrs by FACS flow cytometry; assay type: functional
# DU-145 [20] = test: Downregulation of Mcl-1 protein in human DU145 cells at 0.1 to 2 uM after 2 hrs by Western blot analysis; assay type: functional, cell-based
# DU-145 [21] = test: Cell cycle arrest in human DU145 cells assessed as accumulation in G0/G1 phase at 1 uM after 24 hrs by FACS flow cytometry; assay type: functional
# DU-145 [22] = test: Growth inhibition of human DU145 cells assessed as inhibition of colony formation after 11 to 12 days by crystal violet staining based microscopic analysis; assay type: functional, cell-based
# DU-145 [23] = test: Cell cycle arrest in human DU145 cells assessed as accumulation in G0/G1 phase at 0.5 uM after 24 hrs by FACS flow cytometry; assay type: functional
# DU-145 [24] = test: Cell cycle arrest in human DU145 cells assessed as accumulation in S phase at 0.2 uM after 24 hrs by FACS flow cytometry; assay type: functional
# [25] = target: Signal transducer and activator of transcription 3 (Homo sapiens) (UniProt P40763); test: Inhibition of STAT3 nuclear translocation in EGF stimulated human DU145 cells at 1 uM administered before 100 ng/ml EGF stimulation measured after 2 hrs by confocal laser microscopy; assay type: cell-based; details: DU-145
# [26] = target: Fibroblast growth factor receptor 1 (Homo sapiens, UniProt P11362); test: Inhibition of FGFR-1 after 60 mins by radiometric assay
# [27] = target: Signal transducer and activator of transcription 5A (Homo sapiens) (UniProt P42229); test: Inhibition of STAT5 phosphorylation at Tyr694 after 2 hrs by Western blot analysis
# DU-145 [28] = test: Cell cycle arrest in human DU145 cells assessed as accumulation in G2/M phase at 0.2 uM after 24 hrs by FACS flow cytometry; assay type: functional
# [29] = target: Signal transducer and activator of transcription 3 (Homo sapiens) (UniProt P40763); test: Inhibition of STAT3 phosphorylation Ser727 in human DU145 cells after 24 hrs by Western blot analysis; assay type: cell-based; details: DU-145
# [30] = target: Signal transducer and activator of transcription 3 (Homo sapiens) (UniProt P40763); test: Inhibition of STAT3 phosphorylation at Tyr705 in human DU145 cells at 2 uM within 2 hrs by Western blot analysis; assay type: cell-based; details: DU-145
# [31] = target: Signal transducer and activator of transcription 1-alpha/beta (Homo sapiens) (UniProt P42224); test: Inhibition of STAT1 phosphorylation at Tyr701 after 2 hrs by Western blot analysis
# Sequence of Signal transducer and activator of transcription 1-alpha/beta (Homo sapiens) (P42224 whole entry): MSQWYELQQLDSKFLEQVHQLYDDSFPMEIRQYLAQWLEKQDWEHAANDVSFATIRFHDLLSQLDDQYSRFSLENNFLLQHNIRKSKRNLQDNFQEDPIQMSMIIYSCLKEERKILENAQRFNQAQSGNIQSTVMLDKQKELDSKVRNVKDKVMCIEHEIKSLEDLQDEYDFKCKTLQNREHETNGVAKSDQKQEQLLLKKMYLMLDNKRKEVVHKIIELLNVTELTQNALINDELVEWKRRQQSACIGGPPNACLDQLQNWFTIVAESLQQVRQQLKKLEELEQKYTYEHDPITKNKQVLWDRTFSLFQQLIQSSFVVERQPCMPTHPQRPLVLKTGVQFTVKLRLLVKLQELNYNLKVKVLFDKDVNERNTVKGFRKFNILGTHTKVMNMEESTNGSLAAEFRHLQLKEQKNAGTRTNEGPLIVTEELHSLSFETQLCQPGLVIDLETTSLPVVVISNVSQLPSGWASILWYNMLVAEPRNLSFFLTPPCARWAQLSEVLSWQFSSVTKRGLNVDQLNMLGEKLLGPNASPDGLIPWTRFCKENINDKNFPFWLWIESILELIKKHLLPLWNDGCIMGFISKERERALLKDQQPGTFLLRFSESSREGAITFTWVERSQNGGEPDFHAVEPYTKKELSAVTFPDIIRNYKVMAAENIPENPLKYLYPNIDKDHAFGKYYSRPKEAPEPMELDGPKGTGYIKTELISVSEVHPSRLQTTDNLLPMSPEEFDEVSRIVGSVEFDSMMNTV
# DU-145 [32] = test: Induction of apoptosis in human DU145 cells assessed as necrotic cells at 5 uM after 72 hrs by AnnexinV-propidium iodide based FACS flow cytometry; assay type: functional
# [33] = target: Mitogen-activated protein kinase 8 (Homo sapiens, UniProt P45983); test: Inhibition of JNK1 after 60 mins by radiometric assay
# DU-145 [34] = test: Induction of apoptosis in human DU145 cells assessed as late apoptotic cells at 10 uM after 72 hrs by AnnexinV-propidium iodide based FACS flow cytometry; assay type: functional
# [35] = target: Mast/stem cell growth factor receptor Kit (Homo sapiens, UniProt P10721); test: Inhibition of KIT after 60 mins by radiometric assay
# Sequence of Mast/stem cell growth factor receptor Kit (P10721 whole entry): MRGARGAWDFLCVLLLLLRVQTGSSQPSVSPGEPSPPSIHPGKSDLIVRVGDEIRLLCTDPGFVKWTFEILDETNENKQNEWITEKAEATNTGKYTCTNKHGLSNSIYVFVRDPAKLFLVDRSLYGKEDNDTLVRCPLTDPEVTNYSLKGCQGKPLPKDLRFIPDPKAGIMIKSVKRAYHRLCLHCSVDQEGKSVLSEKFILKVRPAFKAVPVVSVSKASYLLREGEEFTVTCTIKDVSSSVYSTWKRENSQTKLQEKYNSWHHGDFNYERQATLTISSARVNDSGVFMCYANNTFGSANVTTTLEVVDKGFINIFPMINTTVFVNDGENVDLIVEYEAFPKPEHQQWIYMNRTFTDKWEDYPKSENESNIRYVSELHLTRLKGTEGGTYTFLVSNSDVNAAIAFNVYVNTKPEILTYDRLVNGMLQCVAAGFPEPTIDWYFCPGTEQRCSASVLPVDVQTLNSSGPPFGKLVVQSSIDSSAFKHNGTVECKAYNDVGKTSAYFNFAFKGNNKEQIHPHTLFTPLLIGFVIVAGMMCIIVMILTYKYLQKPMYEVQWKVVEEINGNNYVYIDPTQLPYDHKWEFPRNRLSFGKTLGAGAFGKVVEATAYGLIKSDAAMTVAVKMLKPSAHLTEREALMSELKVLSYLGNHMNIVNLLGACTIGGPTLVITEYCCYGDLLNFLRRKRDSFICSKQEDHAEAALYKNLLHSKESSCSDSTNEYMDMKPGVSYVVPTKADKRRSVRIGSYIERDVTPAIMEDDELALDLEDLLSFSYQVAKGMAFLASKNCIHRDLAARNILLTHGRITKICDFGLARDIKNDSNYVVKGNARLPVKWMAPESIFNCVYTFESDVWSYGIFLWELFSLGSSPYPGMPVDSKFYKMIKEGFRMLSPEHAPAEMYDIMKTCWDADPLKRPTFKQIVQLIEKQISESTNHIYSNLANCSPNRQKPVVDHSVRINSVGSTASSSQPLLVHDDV
# [36] = target: Receptor-type tyrosine-protein kinase FLT3 (Homo sapiens, UniProt P36888); test: Inhibition of Flt3 after 60 mins by radiometric assay
# Sequence of Receptor-type tyrosine-protein kinase FLT3 (P36888 whole entry): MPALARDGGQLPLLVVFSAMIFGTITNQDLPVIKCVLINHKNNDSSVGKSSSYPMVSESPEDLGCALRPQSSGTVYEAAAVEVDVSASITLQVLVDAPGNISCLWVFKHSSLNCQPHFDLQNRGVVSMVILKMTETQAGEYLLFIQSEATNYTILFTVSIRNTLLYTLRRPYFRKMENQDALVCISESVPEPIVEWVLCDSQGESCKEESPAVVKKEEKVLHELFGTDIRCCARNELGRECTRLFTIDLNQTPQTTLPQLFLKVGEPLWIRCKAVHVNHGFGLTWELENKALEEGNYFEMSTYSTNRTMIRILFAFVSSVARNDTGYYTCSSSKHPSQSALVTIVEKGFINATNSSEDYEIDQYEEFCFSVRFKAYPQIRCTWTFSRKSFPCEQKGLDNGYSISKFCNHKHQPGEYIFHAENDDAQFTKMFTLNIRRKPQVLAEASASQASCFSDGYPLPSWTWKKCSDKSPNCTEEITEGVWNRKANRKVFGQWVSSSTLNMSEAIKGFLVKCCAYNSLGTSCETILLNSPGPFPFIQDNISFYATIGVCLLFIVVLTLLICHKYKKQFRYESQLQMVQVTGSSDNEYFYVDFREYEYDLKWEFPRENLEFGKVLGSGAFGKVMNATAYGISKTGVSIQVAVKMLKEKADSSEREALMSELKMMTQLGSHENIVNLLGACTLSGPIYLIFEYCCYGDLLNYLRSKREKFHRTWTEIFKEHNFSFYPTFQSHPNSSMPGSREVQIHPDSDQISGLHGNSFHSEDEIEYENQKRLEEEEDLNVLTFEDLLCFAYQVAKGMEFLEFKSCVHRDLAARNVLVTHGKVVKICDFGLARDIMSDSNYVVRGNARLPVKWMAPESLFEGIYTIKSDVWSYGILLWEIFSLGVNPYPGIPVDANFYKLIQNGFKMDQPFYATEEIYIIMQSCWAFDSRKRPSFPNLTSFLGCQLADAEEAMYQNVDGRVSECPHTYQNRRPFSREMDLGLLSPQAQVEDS
compound,measurement,setting,value
O=C(Nc1ccc([N+](=O)[O-])cc1Cl)c1cc(Cl)ccc1O [NICLOSAMIDE],Activity,DU-145 [1],inactive
same,Activity,DU-145 [2],inactive
same,Activity,DU-145 [3],4.84%
same,pIC50,PC-3,4.93
same,inhibition,[4],Active
same,Activity,DU-145 [5],2.63%
same,Activity,DU-145 [6],10.44%
same,pIC50,[7],4.64
same,Activity,DU-145 [8],15.42%
same,viability at 1 µM,DU-145 [9],83.9%
same,pIC50,[10],< 4.00
same,pIC50,[11],< 4.00
same,Activity,DU-145 [12],inactive
same,viability at 10 µM,DU-145 [13],43.4%
same,inhibition,[14],Active
same,Activity,DU-145 [15],inactive
same,pIC50,[16],4.11
same,pIC50,[17],4.62
same,Activity,DU-145 [18],inactive
same,Activity,DU-145 [19],48.4%
same,Activity,DU-145 [20],Active
same,Activity,DU-145 [21],75.35%
same,pIC50,DU-145 [22],6.15
same,Activity,DU-145 [23],57.4%
same,Activity,DU-145 [24],38.4%
same,inhibition,[25],Active
same,pIC50,[26],4.88
same,inhibition,[27],inactive
same,Activity,DU-145 [28],13.11%
same,inhibition,[29],inactive
same,inhibition,[30],Active
same,inhibition,[31],inactive
same,Activity,DU-145 [32],2.27%
same,pIC50,[33],< 4.00
same,Activity,DU-145 [34],38.72%
same,pIC50,[35],4.56
same,pIC50,[36],< 4.00
